Reference: paper PMC11617653, “Macrocyclic Inhibitors Targeting the Prime Site of the Fibrinolytic Serine Protease Plasmin” (Chemmedchem, 2024)
Several values for one entry are separate records, joined by “and”; a condition that tells them apart may be missing. Equal values may be shown once. Read-outs that look alike come from different tables or passages of the source. Positions of bridges follow the written chain, without caps; N, C: chain ends. Non-standard residues stand in square brackets, D forms with d. Residues, ends and D or L forms follow the SMILES beside them. Phe(4-NH2) = Nc1ccc(C[C@H](N)C(=O)O)cc1; Trx = NC[C@H]1CC[C@H](C(=O)O)CC1; βAla = NCCC(=O)O

Columns and labels:
Type in all cases: biochemical
[1] = molecular target: T1, human plasmin (Homo sapiens, UniProt P00747); assay: Inhibition of human plasmin, fluorogenic substrate Mes-DArg-Phe-Arg-AMC; conditions: for fold weaker plasmin inhibition than inhibitor 28: compared with cyclic inhibitor 28
T1 construct: purchased Calbiochem
Method: All inhibitors prepared in this study act as reversible competitive plasmin inhibitors, their K i values were calculated by fitting the steady‐state velocities as function of the inhibitor concentrations using equation 1. 4‐aminophenylalanine (Phe(4‐NH2)) was incorporated as P1’ residue in the first inhibitor series, which enabled a macrocyclization via amide bond formation from its side chain amino group using various linker segments and P2’ residues (Table 1). […] The improved potency of SFTI‐1 analogues with basic P2’ residues[9] stimulated the incorporation of Arg in that position leading to inhibitor 4 with a slightly stronger inhibitory potency. A significant improvement could be achieved when using 3‐ or 4‐aminophenylacetic acid as P2’ group in combination with elongated linker residues (5‐6). […] However, inhibitor 9 is a twofold stronger plasmin inhibitor compared to its analogue 8.
For these inhibitors the steady‐state velocities were calculated by fitting the progress curves to equation 2 providing an additional apparent first‐order rate constant k obs for each curve. The steady‐state rates were used for K i determination with equation 1 and the k obs values for the calculation of the association rate constants k on according to equation 3. The dissociation rate constant k off was calculated from the known K i and k on values using equation 4. The enzyme kinetic evaluation of slow‐binding inhibitors of plasmin has already been described in detail in our two previous publications.[11, 12]
All measurements were conducted as triplicates in black 96‐well FluoroNunc MaxiSorp plates (Nunc, Langenselbold, Germany) and suitable fluorogenic substrates at room temperature. […] Each well contained a total volume of 180 μL consisting of 100 μL of inhibitor dissolved in buffer, 40 μL of the substrate Mes‐DArg‐Phe‐Arg‐AMC[11] (100 μM in assay, KM=16.1 μM) dissolved in water and 40 μL of plasmin solution (0.27 nM in assay). The following equations were used for the enzyme kinetic analysis as described in the results section and in our previous publications.[11, 12] (1) [drawing 71] (2) [drawing 72] (3) [drawing 73] (4) [drawing 74]

[2] = molecular target: plasma kallikrein (PK) (Homo sapiens, UniProt P03952); assay: Selectivity: inhibition of plasma kallikrein; conditions: for PK selectivity index K i(protease)/Ki(plasmin): in brackets; for Ki: read-out: PK K i
Method: (§1) For these three proteases a selectivity index (SI=K i(protease)/K i(plasmin)) was calculated, which is provided in brackets after the inhibition constants (Table 3).
(§2) The measurements with the related trypsin‐like serine proteases trypsin, plasma kallikrein, factor XIa, thrombin, activated protein Ca and factor Xa used in selectivity studies were performed as described previously.[11, 12]

[3] = molecular target: factor XIa (fXIa) (Homo sapiens, UniProt P03951); assay: Selectivity: inhibition of factor XIa; conditions: for fXIa selectivity index K i(protease)/Ki(plasmin): in brackets; for Ki: read-out: fXIa K i
Method: as §1, §2

[4] = molecular target: thrombin (Homo sapiens, UniProt P00734); assay: Selectivity: inhibition of thrombin; conditions: deduced from pre-assays with only three inhibitor concentrations; read-out: Thrombin K i
Method: as §1, §2

[5] = molecular target: activated protein C (aPC) (Homo sapiens, UniProt P04070); assay: Selectivity: inhibition of activated protein C; conditions: deduced from pre-assays with only three inhibitor concentrations; read-out: aPC K i
Method: as §1, §2

[6] = molecular target: factor Xa (fXa) (Homo sapiens, UniProt P00742); assay: Selectivity: inhibition of factor Xa; conditions: deduced from pre-assays with only three inhibitor concentrations; read-out: fXa K i
Method: as §1, §2

[7] = K i (μM), inhibition of plasmin, series one, 4-aminophenylalanine in P1', steady-state velocities, equation 1
[8] = K i (nM), inhibition of plasmin, series two, substituted Bpa in P1', and acyclic analogues, steady-state velocities, equation 1
[9] = Plasmin K i, Table 3 selectivity

T1 sequence (P00747 581-810): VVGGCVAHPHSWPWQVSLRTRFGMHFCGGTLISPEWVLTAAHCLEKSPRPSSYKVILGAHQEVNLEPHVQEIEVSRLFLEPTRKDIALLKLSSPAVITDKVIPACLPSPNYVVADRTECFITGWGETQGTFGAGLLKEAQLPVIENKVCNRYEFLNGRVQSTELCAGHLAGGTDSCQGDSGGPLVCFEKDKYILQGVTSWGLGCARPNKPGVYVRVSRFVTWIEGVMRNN
T1 sequence (P00747 97-580): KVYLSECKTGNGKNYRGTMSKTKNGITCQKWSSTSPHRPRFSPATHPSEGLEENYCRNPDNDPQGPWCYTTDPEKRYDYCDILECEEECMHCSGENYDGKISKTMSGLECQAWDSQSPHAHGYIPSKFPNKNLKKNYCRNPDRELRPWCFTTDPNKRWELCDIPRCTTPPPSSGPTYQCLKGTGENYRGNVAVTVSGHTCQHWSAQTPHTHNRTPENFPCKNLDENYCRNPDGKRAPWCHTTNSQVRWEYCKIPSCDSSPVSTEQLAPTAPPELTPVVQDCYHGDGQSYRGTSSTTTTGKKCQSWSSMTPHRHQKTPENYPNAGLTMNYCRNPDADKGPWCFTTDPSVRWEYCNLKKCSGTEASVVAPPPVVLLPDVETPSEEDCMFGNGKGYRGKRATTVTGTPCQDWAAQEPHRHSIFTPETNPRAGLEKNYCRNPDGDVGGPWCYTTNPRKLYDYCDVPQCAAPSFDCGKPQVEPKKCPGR
activated protein C (aPC), sequence (P04070 43-197): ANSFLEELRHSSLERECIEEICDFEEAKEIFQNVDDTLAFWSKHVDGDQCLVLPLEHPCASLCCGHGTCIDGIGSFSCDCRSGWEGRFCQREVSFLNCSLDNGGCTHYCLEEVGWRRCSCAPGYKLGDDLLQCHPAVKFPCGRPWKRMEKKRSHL
activated protein C (aPC), sequence (P04070 212-461): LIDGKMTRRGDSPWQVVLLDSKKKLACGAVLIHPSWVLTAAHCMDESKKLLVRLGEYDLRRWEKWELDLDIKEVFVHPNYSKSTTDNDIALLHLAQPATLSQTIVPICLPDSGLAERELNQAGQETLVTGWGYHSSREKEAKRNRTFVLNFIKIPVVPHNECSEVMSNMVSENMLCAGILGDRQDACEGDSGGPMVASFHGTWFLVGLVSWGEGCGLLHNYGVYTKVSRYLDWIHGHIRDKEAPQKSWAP
factor Xa (fXa), sequence (P00742 41-179): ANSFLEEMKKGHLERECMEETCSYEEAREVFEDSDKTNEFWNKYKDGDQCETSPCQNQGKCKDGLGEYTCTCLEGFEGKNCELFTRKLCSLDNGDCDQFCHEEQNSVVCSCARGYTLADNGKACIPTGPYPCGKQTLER
factor Xa (fXa), sequence (P00742 235-488): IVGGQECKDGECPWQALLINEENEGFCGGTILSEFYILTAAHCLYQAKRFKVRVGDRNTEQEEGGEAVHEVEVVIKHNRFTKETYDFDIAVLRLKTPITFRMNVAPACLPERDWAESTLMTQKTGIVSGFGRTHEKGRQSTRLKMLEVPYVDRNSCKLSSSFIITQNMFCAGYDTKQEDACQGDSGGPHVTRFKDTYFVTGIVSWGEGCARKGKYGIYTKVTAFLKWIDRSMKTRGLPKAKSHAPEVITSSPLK
plasma kallikrein (PK), sequence (P03952 391-638): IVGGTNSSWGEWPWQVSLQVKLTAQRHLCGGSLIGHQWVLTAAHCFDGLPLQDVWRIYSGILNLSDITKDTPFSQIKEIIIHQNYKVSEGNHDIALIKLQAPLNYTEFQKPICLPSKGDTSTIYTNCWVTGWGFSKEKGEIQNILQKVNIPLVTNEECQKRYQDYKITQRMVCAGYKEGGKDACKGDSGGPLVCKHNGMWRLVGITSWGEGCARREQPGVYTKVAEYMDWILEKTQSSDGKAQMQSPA
plasma kallikrein (PK), sequence (P03952 20-390): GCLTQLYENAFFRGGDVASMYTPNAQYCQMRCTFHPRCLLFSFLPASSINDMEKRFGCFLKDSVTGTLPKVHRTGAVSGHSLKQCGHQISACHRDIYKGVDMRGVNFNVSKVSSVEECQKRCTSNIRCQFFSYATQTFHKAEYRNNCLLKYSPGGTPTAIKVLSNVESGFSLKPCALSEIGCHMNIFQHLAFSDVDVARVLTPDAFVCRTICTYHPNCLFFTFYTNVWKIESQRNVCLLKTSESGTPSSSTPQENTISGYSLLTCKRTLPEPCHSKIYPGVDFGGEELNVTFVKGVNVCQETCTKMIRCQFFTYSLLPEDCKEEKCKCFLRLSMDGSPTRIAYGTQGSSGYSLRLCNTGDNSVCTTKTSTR
factor XIa (fXIa), sequence (P03951 19-387): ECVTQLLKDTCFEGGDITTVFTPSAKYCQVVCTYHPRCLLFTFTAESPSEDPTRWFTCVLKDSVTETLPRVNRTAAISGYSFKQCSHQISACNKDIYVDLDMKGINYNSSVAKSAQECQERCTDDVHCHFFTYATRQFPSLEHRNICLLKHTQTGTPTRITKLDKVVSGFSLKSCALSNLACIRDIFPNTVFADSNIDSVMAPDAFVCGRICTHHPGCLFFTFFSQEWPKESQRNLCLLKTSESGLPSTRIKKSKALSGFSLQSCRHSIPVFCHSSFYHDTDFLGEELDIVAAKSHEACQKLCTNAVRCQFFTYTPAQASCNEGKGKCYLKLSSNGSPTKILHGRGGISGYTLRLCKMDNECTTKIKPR
factor XIa (fXIa), sequence (P03951 388-625): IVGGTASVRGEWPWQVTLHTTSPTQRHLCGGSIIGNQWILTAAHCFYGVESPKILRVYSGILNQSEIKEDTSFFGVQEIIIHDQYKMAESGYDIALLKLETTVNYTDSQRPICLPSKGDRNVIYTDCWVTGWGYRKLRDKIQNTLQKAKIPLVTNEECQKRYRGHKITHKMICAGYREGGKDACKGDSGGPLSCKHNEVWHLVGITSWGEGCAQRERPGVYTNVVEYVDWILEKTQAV

| Compound | Ki [1, 7] | Ki [1, 8] | other results |
| --- | --- | --- | --- |
| NC[C@H]1CC[C@H](C(=O)N[C@H]2Cc3ccc(cc3)NC(=O)CCNC(=O)CNC2=O)CC1 [inhibitor 3] (H-[Trx][Phe(4-NH2)]G[βAla]; lactam 2-C) | 150 ± 31 µM | – | – |
| Cc1ccc2cc1NC(=O)CCCCCNC(=O)Cc1ccc(cc1)NC(=O)[C@@H](NC(=O)[C@H]1CC[C@H](CN)CC1)Cc1ccc-2cc1 [inhibitor 22] | – | 0.042 µM and 0.0421 µM | – |
| NC[C@H]1CC[C@H](C(=O)N[C@H]2Cc3ccc(cc3)-c3ccc(C(=O)Nc4ccccc4)c(c3)NC(=O)CNC(=O)CCCNC(=O)Cc3ccc(cc3)NC2=O)CC1 [inhibitor 32] | – | 0.00146 ± 7e-05 µM | Ki [1, 9]: 0.00146 µM; PK selectivity index K i(protease)/Ki(plasmin) [2]: 11; Ki [2]: 15 ± 1 nM; fXIa selectivity index K i(protease)/Ki(plasmin) [3]: 4; Ki [3]: 5.3 ± 1.4 nM; Ki [4]: > 25 µM; Ki [5]: > 20 µM; Ki [6]: > 5 µM |
| NC[C@H]1CC[C@H](C(=O)N[C@H]2Cc3ccc(cc3)NC(=O)CNC(=O)CCNC(=O)Cc3ccc(cc3)NC2=O)CC1 [inhibitor 9] | 2.82 ± 0.2 µM | – | – |
| Cc1ccc2cc1NC(=O)CNC(=O)CCCNC(=O)c1ccc3cc(ccc3c1)NC(=O)[C@@H](NC(=O)[C@H]1CC[C@H](CN)CC1)Cc1ccc-2cc1 [inhibitor 44] | – | – | Ki ([1]; read-out: K i (nM), inhibition of plasmin, series two, substituted Bpa in P1', and acyclic analogues, steady-state velocities, equation 1): 0.0103 ± 0.0002 µM |
| Cc1ccc(-c2ccc(C[C@H](NC(=O)[C@H]3CC[C@H](CN)CC3)C(=O)Nc3ccc(CC(=O)NCCCC(=O)NCC(=O)O)cc3)cc2)cc1N [inhibitor 46] | – | 0.0861 ± 0.0066 µM | – |
| Cc1ccc2cc1NC(=O)[C@H](N)CCCCNC(=O)Cc1ccc(cc1)NC(=O)[C@@H](NC(=O)[C@H]1CC[C@H](CN)CC1)Cc1ccc-2cc1 [inhibitor 34] | – | 0.0365 ± 0.0007 µM | – |
| NC[C@H]1CC[C@H](C(=O)N[C@H]2Cc3ccc(cc3)NC(=O)CCCCCNC(=O)Cc3ccc(cc3)NC2=O)CC1 [inhibitor 6] | 1.38 ± 0.15 µM | – | – |
| Cc1ccc2cc1NC(=O)C(Cc1ccccc1)NC(=O)CCCNC(=O)Cc1ccc(cc1)NC(=O)C(NC(=O)C1CCC(CN)CC1)Cc1ccc-2cc1 (stereo not drawn) [inhibitor 30] | – | 0.00208 ± 5e-05 µM | Ki [1, 9]: 0.00208 µM; PK selectivity index K i(protease)/Ki(plasmin) [2]: 30; Ki [2]: 60 ± 12 nM; fXIa selectivity index K i(protease)/Ki(plasmin) [3]: 23; Ki [3]: 47 ± 2 nM; Ki [4]: > 30 µM; Ki [5]: > 5 µM; Ki [6]: > 80 µM |
| Cc1ccc2cc1NC(=O)CNC(=O)CCCNC(=O)Cc1ccc(cc1)NC(=O)[C@@H](NC(=O)[C@H]1CC[C@H](CN)CC1)Cc1ccc-2cc1 [inhibitor 28] | – | 0.00083 µM and 0.000832 µM | fold stronger plasmin inhibition than acyclic analogues 46 and 47 [1]: approximately 75 fold; Ki [1, 9]: 0.000832 µM; PK selectivity index K i(protease)/Ki(plasmin) [2]: 38; Ki [2]: 31 ± 14 nM; fXIa selectivity index K i(protease)/Ki(plasmin) [3]: 49; Ki [3]: 41 ± 3.2 nM; Ki [4]: > 60 µM; Ki [5]: > 35 µM; Ki [6]: > 8 µM |
| NC[C@H]1CC[C@H](C(=O)N[C@H]2Cc3ccc(cc3)NC(=O)CCCCNC(=O)Cc3ccc(cc3)NC2=O)CC1 [inhibitor 7] | 2.45 ± 0.02 µM | – | – |
| Cc1ccc2cc1NC(=O)CCCNC(=O)CNC(=O)Cc1ccc(cc1)NC(=O)[C@@H](NC(=O)[C@H]1CC[C@H](CN)CC1)Cc1ccc-2cc1 [inhibitor 27] | – | 0.017 ± 0.0006 µM | fold weaker plasmin inhibition than inhibitor 28 [1]: at least 20 fold |
| Cc1ccc2cc1NC(=O)CNC(=O)CCNC(=O)Cc1ccc(cc1)NC(=O)[C@@H](NC(=O)[C@H]1CC[C@H](CN)CC1)Cc1ccc-2cc1 [inhibitor 25] | – | 0.0338 ± 0.0014 µM | fold weaker plasmin inhibition than inhibitor 28 [1]: at least 20 fold |
| NC[C@H]1CC[C@H](C(=O)N[C@H]2Cc3ccc(cc3)NC(=O)CCNC(=O)CNC(=O)Cc3ccc(cc3)NC2=O)CC1 [inhibitor 8] | 5.53 ± 0.42 µM | – | – |
| CC(C)C[C@@H]1NC(=O)CCNC(=O)Cc2ccc(cc2)NC(=O)[C@@H](NC(=O)[C@H]2CC[C@H](CN)CC2)Cc2ccc(cc2)NC1=O [inhibitor 10] | 3.33 ± 0.41 µM | – | – |
| Cc1ccc2cc1NC(=O)[C@@H](N)CCCCNC(=O)Cc1ccc(cc1)NC(=O)[C@@H](NC(=O)[C@H]1CC[C@H](CN)CC1)Cc1ccc-2cc1 [inhibitor 35] | – | 0.0298 ± 0.0016 µM | – |

| Compound | Ki [1, 7] | Ki [1, 8] | other results |
| --- | --- | --- | --- |
| Cc1ccc2cc1NC(=O)CCNC(=O)CNC(=O)Cc1ccc(cc1)NC(=O)[C@@H](NC(=O)[C@H]1CC[C@H](CN)CC1)Cc1ccc-2cc1 [inhibitor 26] | – | 0.0331 ± 0.0032 µM | – |
| Cc1ccc2cc1NC(=O)CNC(=O)CCCNC(=O)Cc1cccc(c1)CNC(=O)[C@@H](NC(=O)[C@H]1CC[C@H](CN)CC1)Cc1ccc-2cc1 [inhibitor 42] | – | 0.284 ± 0.024 µM | – |
| CC(C)C[C@H]1NC(=O)CCNC(=O)Cc2ccc(cc2)NC(=O)[C@@H](NC(=O)[C@H]2CC[C@H](CN)CC2)Cc2ccc(cc2)NC1=O [inhibitor 11] | 3.85 ± 0.28 µM | – | – |
| Cc1ccc2cc1NC(=O)CNC(=O)CCCCNC(=O)Cc1ccc(cc1)NC(=O)[C@@H](NC(=O)[C@H]1CC[C@H](CN)CC1)Cc1ccc-2cc1 [inhibitor 29] | – | 0.0626 ± 0.0023 µM | – |
| Cc1ccc(-c2ccc(C[C@H](NC(=O)[C@H]3CC[C@H](CN)CC3)C(=O)Nc3ccc(CC(=O)NCCCC(=O)NCC(N)=O)cc3)cc2)cc1N [inhibitor 47] | – | 0.0651 ± 0.0017 µM | – |
| Cc1ccc2cc1NC(=O)CCN1CCN(CC1)C(=O)Cc1ccc(cc1)NC(=O)[C@@H](NC(=O)[C@H]1CC[C@H](CN)CC1)Cc1ccc-2cc1 [inhibitor 37] | – | 0.013 ± 0.0002 µM | – |
| Cc1ccc2cc1NC(=O)CNC(=O)CCCCNC(=O)c1ccc3cc(ccc3c1)NC(=O)[C@@H](NC(=O)[C@H]1CC[C@H](CN)CC1)Cc1ccc-2cc1 [inhibitor 43] | – | 0.00514 ± 0.00027 µM | – |
| Cc1ccc2cc1NC(=O)C1CCC(CC1)CNC(=O)Cc1ccc(cc1)NC(=O)C(NC(=O)C1CCC(CN)CC1)Cc1ccc-2cc1 (stereo not drawn) [inhibitor 23] | – | 0.109 ± 0.004 µM | – |
| NC[C@H]1CC[C@H](C(=O)N[C@H]2Cc3ccc(cc3)NC(=O)[C@H](Cc3ccccc3)NC(=O)CCNC(=O)Cc3ccc(cc3)NC2=O)CC1 [inhibitor 12, (1r,4S)‐4‐(aminomethyl)‐N‐((4S,9S)‐9‐benzyl‐3,8,11,15‐tetraoxo‐2,7,10,14‐tetraaza‐1,6(1,4)‐dibenzenacyclohexadecaphane‐4‐yl)cyclohexane‐1‐carboxamide] | 0.71 µM and 0.714 µM | – | – |
| Cc1ccc2cc1NC(=O)CCCN1CCN(CC1)C(=O)Cc1ccc(cc1)NC(=O)[C@@H](NC(=O)[C@H]1CC[C@H](CN)CC1)Cc1ccc-2cc1 [inhibitor 36] | – | 0.112 ± 0.006 µM | – |
| Cc1ccc2cc1NC(=O)Cc1ccc(cc1)NC(=O)Cc1ccc(cc1)NC(=O)[C@@H](NC(=O)[C@H]1CC[C@H](CN)CC1)Cc1ccc-2cc1 [inhibitor 24] | – | 0.0105 ± 0.0014 µM | fold enhanced plasmin potency compared with compound 22 [1]: 4 fold |
| NC[C@H]1CC[C@H](C(=O)N[C@H]2Cc3ccc(cc3)NC(=O)CCCCCNC(=O)Cc3cccc(c3)NC2=O)CC1 [inhibitor 5] | 5.81 ± 1.09 µM | – | – |
| Cc1ccc2cc1NC(=O)CN1CCN(CC1)C(=O)Cc1ccc(cc1)NC(=O)[C@@H](NC(=O)[C@H]1CC[C@H](CN)CC1)Cc1ccc-2cc1 [inhibitor 38] | – | 0.0357 ± 0.0011 µM | – |
| N=C(N)NCCC[C@@H]1NC(=O)[C@@H](NC(=O)[C@H]2CC[C@H](CN)CC2)Cc2ccc(cc2)NC(=O)CCNC1=O [inhibitor 4] (H-[Trx][Phe(4-NH2)]R[βAla]; lactam 2-C) | 110 ± 56 µM | – | – |
| Cc1ccc2cc1NC(=O)CNC(=O)CCNC(=O)Cc1cccc(c1)NC(=O)[C@@H](NC(=O)[C@H]1CC[C@H](CN)CC1)Cc1ccc-2cc1 [inhibitor 41] | – | 0.0206 ± 0.0005 µM | – |
| Cc1ccc2cc1NC(=O)CNC(=O)CCCCNC(=O)Cc1cccc(c1)NC(=O)[C@@H](NC(=O)[C@H]1CC[C@H](CN)CC1)Cc1ccc-2cc1 [inhibitor 39] | – | 0.0269 ± 0.0005 µM | – |
